Assay results reported in patent US12077503B2, “Substituted cyclic amides and their use as herbicides” (FMC CORPORATION, priority 2015, dated 2024).

Key:
Assay type in all cases: in vivo
[1] = test system: Kochia (Kochia scoparia); test: Test A preemergence; conditions: Bassia scoparia, pre-emergence, 240 h, preemergence, 0 to 100 scale where 0 is no effect and 100 is complete control, read-out: Kochia plant response rating
Procedure, shortened: (§1)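 Treatment is preemergence as a directed soil spray after planting, or postemergence at the one- to two-leaf stage, with test chemical in a non-phytotoxic solvent mixture plus surfactant. Plants stay in the greenhouse about 10 d before visual injury scoring on a 0 to 100 scale versus untreated controls.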

[2] = test system: barnyardgrass (Echinochloa crus-galli); test: Test A preemergence; conditions: Echinochloa crus-galli, pre-emergence, 240 h, preemergence, 0 to 100 scale where 0 is no effect and 100 is complete control, read-out: Barnyardgrass plant response rating
Procedure, shortened: as §1

[3] = test system: giant foxtail (Setaria faberii); test: Test A preemergence; conditions: Setaria faberi, pre-emergence, 240 h, preemergence, 0 to 100 scale where 0 is no effect and 100 is complete control, read-out: Foxtail, Giant plant response rating
Procedure, shortened: as §1

[4] = test system: pigweed (Amaranthus retroflexus); test: Test A preemergence; conditions: Amaranthus retroflexus, pre-emergence, 240 h, preemergence, 0 to 100 scale where 0 is no effect and 100 is complete control, read-out: Pigweed plant response rating
[5] = test system: ragweed (common ragweed, Ambrosia elatior); test: Test A preemergence; conditions: Ambrosia artemisiifolia, pre-emergence, 240 h, preemergence, 0 to 100 scale where 0 is no effect and 100 is complete control, read-out: Ragweed plant response rating
Procedure, shortened: as §1

[6] = test system: ryegrass, Italian (Italian ryegrass, Lolium multiflorum); test: Test A preemergence; conditions: Lolium multiflorum, pre-emergence, 240 h, preemergence, 0 to 100 scale where 0 is no effect and 100 is complete control, read-out: Ryegrass, Italian plant response rating
Procedure, shortened: as §1

[7] = test system: Galium (catchweed bedstraw, Galium aparine); test: Test A postemergence; conditions: Galium, post-emergence, 240 h, postemergence
Procedure, shortened: as §1

[8] = test system: Kochia (Kochia scoparia); test: Test A postemergence; conditions: Bassia scoparia, post-emergence, 240 h, postemergence
Procedure, shortened: as §1

[9] = test system: barnyardgrass (Echinochloa crus-galli); test: Test A postemergence; conditions: Echinochloa crus-galli, post-emergence, 240 h, postemergence
Procedure, shortened: as §1

[10] = test system: blackgrass (Alopecurus myosuroides); test: Test A postemergence; conditions: Alopecurus myosuroides, post-emergence, 240 h, postemergence
Procedure, shortened: as §1

[11] = test system: corn (Zea mays); test: Test A postemergence; conditions: Zea mays, post-emergence, 240 h, postemergence
Procedure, shortened: as §1

[12] = test system: giant foxtail (Setaria faberii); test: Test A postemergence; conditions: Setaria faberi, post-emergence, 240 h, postemergence
Procedure, shortened: as §1

[13] = test system: pigweed (Amaranthus retroflexus); test: Test A postemergence; conditions: Amaranthus retroflexus, post-emergence, 240 h, postemergence
Procedure, shortened: as §1

[14] = test system: ragweed (common ragweed, Ambrosia elatior); test: Test A postemergence; conditions: Ambrosia artemisiifolia, post-emergence, 240 h, postemergence
Procedure, shortened: as §1

[15] = test system: ryegrass, Italian (Italian ryegrass, Lolium multiflorum); test: Test A postemergence; conditions: Lolium multiflorum, post-emergence, 240 h, postemergence
Procedure, shortened: as §1

[16] = test system: wheat (Triticum aestivum); test: Test A postemergence; conditions: Triticum aestivum, post-emergence, 240 h, postemergence
Procedure, shortened: as §1

[17] = 125 g ai/ha, visual injury rating, approximately 10 d

Compound `CSc1ccccc1NC(=O)[C@H]1C(=O)N(C)C[C@@H]1c1ccc(OC(F)F)cc1` [Compound 1212] has a pest or weed control at 125 g/ha [1, 17] of 100%, a pest or weed control at 500 g/ha ([1]; 500 g ai/ha) of 100% and a pest or weed control at 125 g/ha [2, 17] of 80%. For the same compound, the pest or weed control at 500 g/ha ([2]; 500 g ai/ha) was 100%, the pest or weed control at 125 g/ha [3, 17] was 90% and the pest or weed control at 500 g/ha ([3]; 500 g ai/ha) was 100%. For the same compound, the pest or weed control at 125 g/ha [4, 17] was 80%, the pest or weed control at 500 g/ha ([4]; 500 g ai/ha) was 90% and the pest or weed control at 125 g/ha [5, 17] was 40%. The pest or weed control at 500 g/ha ([5]; 500 g ai/ha) was 90%, the pest or weed control at 125 g/ha [6, 17] was 0% and the pest or weed control at 500 g/ha ([6]; 500 g ai/ha) was 70%. For the same compound, the pest or weed control at 125 g/ha ([7]; 125 g ai/ha, visual injury vs untreated controls after approx. 10 d, 0 = no effect, 100 = complete control, read-out: Galium plant response rating (0 to 100 scale)) was 50%, the pest or weed control at 500 g/ha ([7]; 500 g ai/ha, 0 to 100 scale, 0 is no effect, 100 is complete control, read-out: Galium plant response rating) was 60% and the pest or weed control at 125 g/ha ([8]; 125 g ai/ha, visual injury vs untreated controls after approx. 10 d, 0 = no effect, 100 = complete control, read-out: Kochia plant response rating (0 to 100 scale)) was 60%. It also gave a pest or weed control at 500 g/ha ([8]; 500 g ai/ha, 0 to 100 scale, 0 is no effect, 100 is complete control, read-out: Kochia plant response rating) of 80%, a pest or weed control at 125 g/ha ([9]; 125 g ai/ha, visual injury vs untreated controls after approx. 10 d, 0 = no effect, 100 = complete control, read-out: Barnyardgrass plant response rating (0 to 100 scale)) of 80% and a pest or weed control at 500 g/ha ([9]; 500 g ai/ha, 0 to 100 scale, 0 is no effect, 100 is complete control, read-out: Barnyardgrass plant response rating) of 100%. It also gave a pest or weed control at 125 g/ha ([10]; 125 g ai/ha, visual injury vs untreated controls after approx. 10 d, 0 = no effect, 100 = complete control, read-out: Blackgrass plant response rating (0 to 100 scale)) of 0%, a pest or weed control at 500 g/ha ([10]; 500 g ai/ha, 0 to 100 scale, 0 is no effect, 100 is complete control, read-out: Blackgrass plant response rating) of 30% and a plant injury at 125 g/ha ([11]; 125 g ai/ha, visual injury vs untreated controls after approx. 10 d, 0 = no effect, 100 = complete control, read-out: Corn plant response rating (0 to 100 scale)) of 0%. For the same compound, the plant injury at 500 g/ha ([11]; 500 g ai/ha, 0 to 100 scale, 0 is no effect, 100 is complete control, read-out: Corn plant response rating) was 20%, the pest or weed control at 125 g/ha ([12]; 125 g ai/ha, visual injury vs untreated controls after approx. 10 d, 0 = no effect, 100 = complete control, read-out: Foxtail, Giant plant response rating (0 to 100 scale)) was 70% and the pest or weed control at 500 g/ha ([12]; 500 g ai/ha, 0 to 100 scale, 0 is no effect, 100 is complete control, read-out: Foxtail, Giant plant response rating) was 90%. For the same compound, the pest or weed control at 125 g/ha ([13]; 125 g ai/ha, visual injury vs untreated controls after approx. 10 d, 0 = no effect, 100 = complete control, read-out: Pigweed plant response rating (0 to 100 scale)) was 50%, the pest or weed control at 500 g/ha ([13]; 500 g ai/ha, 0 to 100 scale, 0 is no effect, 100 is complete control, read-out: Pigweed plant response rating) was 70% and the pest or weed control at 125 g/ha ([14]; 125 g ai/ha, visual injury vs untreated controls after approx. 10 d, 0 = no effect, 100 = complete control, read-out: Ragweed plant response rating (0 to 100 scale)) was 0%. It also gave a pest or weed control at 500 g/ha ([14]; 500 g ai/ha, 0 to 100 scale, 0 is no effect, 100 is complete control, read-out: Ragweed plant response rating) of 30%, a pest or weed control at 125 g/ha ([15]; 125 g ai/ha, visual injury vs untreated controls after approx. 10 d, 0 = no effect, 100 = complete control, read-out: Ryegrass, Italian plant response rating (0 to 100 scale)) of 0% and a pest or weed control at 500 g/ha ([15]; 500 g ai/ha, 0 to 100 scale, 0 is no effect, 100 is complete control, read-out: Ryegrass, Italian plant response rating) of 20%. The plant injury at 125 g/ha ([16]; 125 g ai/ha, visual injury vs untreated controls after approx. 10 d, 0 = no effect, 100 = complete control, read-out: Wheat plant response rating (0 to 100 scale)) was 0% and the plant injury at 500 g/ha ([16]; 500 g ai/ha, 0 to 100 scale, 0 is no effect, 100 is complete control, read-out: Wheat plant response rating) was 40%.
